# Tests used:
# [1] = tested on: BCMA expression on MM.1S; assay: BCMA expression on MM.1S from bone marrow of ATRA-treated NSG mice; format: in vivo; details: NSG/MM1.S; ATRA 30 mg/kg i.p. every day, 4 days; P=0.002
# Procedure: NSG mice were inoculated with MM.1S cells. After twelve days, mice were i.p. injected with 30 mg/kg ATRA for 4 days. BCMA-expression on MM.1S cells obtained from bone marrow of untreated and ATRA-treated mice was analysed by flow cytometry.
# The University of Wurzburg Institutional Animal Care and Use Committee approved all mouse experiments. Six- to eight-week old female NSG (NOD-scid IL2rynull) mice were obtained from Charles River and inoculated by tail vein injection with 2×10^6 MM.1S/ffluc_GFP at day 0 and randomly allocated to ATRA-treatment and control group. ATRA (Sigma Aldrich, Darmstadt, Germany) was formulated in corn oil and administered by intraperitoneal (i.p) injection (30 mg/kg) for four days, starting twelve days after tumor inoculation.
# This encouraged experiments in a murine xenograft model of myeloma (NSG/MM1.S). In a first set of experiments, n=6 mice were inoculated with MM1.S cells (2×10^6 cells given i.v. by tail vein injection) for 12 days to establish systemic myeloma, and then administered a 4-day treatment course with either ATRA (n=3 mice; 30 mg/kg given i.p. every day) or solvent control (n=3 mice). The following day, mice were sacrificed, MM.1S myeloma cells were isolated from bone marrow and BCMA expression analyzed by flow cytometry. […] The in vivo upregulation of BCMA after GSI treatment was shown by Pont et. al. in 2019^40.
# [2] = tested on: BCMA RNA levels in OPM-2; assay: BCMA RNA levels in OPM-2 by qRT-PCR; format: cell-based, human; details: 50 nM ATRA, 48 hours, qPCR
# Procedure: (§1) BCMA RNA levels in MM.1S (n=4) and OPM-2 (n=3) by quantitative reverse transcription PCR (qRT-PCR) assay was quantified after incubation with increasing doses of ATRA for 48 hours. Depicted are mean values+SD.
# (§2) Total RNAs were extracted with RNeasy Mini Kit (Qiagen, Hilden, Germany) according to the manufacturer's protocol. Reverse transcription-quantitative polymerase chain reaction (RT-qPCR) analysis of BCMA was performed with 1 μg of total RNA and SuperScript™ II Reverse Transcriptase (Thermo Fisher Scientific, Inc Massachusetts). The quality and integrity of the RNA was verified by a Bioanalyzer 2100 (Agilent Technologies, Santa Clara, CA). The primer sequences used were as follows: BCMA forward primer, 5′-TGTTCTTCTAATACTCCTCCTCT-3′ (SEQ ID NO: 25) and reverse primer, 5′-AACTCGTCCTTTAATGGTTC-3′ (SEQ ID NO: 26). […] RT-qPCR was performed in a 7900HT Real-time PCR System (Thermo Fisher Scientific, Inc Massachusetts) using Quantitec SYBR green Kit (Qiagen, Hilden, Germany) in a 7900 HT Fast Real Time PCR System (Applied Biosystems, Foster City, CA). […] The threshold cycle for each sample was selected from the linear range and converted to a starting quantity by interpolation from a standard curve generated on the same plate for each set of primers. […]
# [3] = tested on: BCMA RNA levels in MM.1S; assay: BCMA RNA levels in MM.1S by qRT-PCR; format: cell-based, human; details: 50 nM ATRA, 48 hours, qPCR
# Procedure: as §1, §2
# [4] = tested on: BCMA surface molecules on MM.1S cells; assay: BCMA molecule distribution on MM.1S cells by dSTORM; format: cell-based, human; details: vs untreated
# Excerpt: Representative photographs of BCMA molecule distribution on untreated and ATRA-treated MM.1S cells visualized by direct stochastic optical reconstruction microscopy (dSTORM).
# [5] = tested on: BCMA expression on MM.1S; assay: BCMA expression on MM.1S by flow cytometry after ATRA treatment; format: cell-based, human
# Procedure: (§3) Flow cytometric analysis of BCMA-expression on MM.1S, OPM-2 and NCI-H929 cell lines that had been cultured in the absence or presence of 50 nM ATRA for 72 hours. […] 7-AAD was used to exclude dead cells from analysis.
# [6] = tested on: BCMA-CAR T-cells co-incubated with MM.1S; assay: Cytokine release of BCMA-CAR T-cells after stimulation with pretreated MM.1S, ELISA; format: cell-based, human; details: MM.1S pretreated 72 hours with 100 nM ATRA and/or 0.01 uM GSI, 20 hours co-incubation
# Procedure: MM.1S were incubated with 100 nM ATRA and/or 0.01 uM GSI for 72 hours or were left untreated. Afterwards, BCMA-CAR T-cells were co-incubated with these target cells for 20 hours. Cytokine release of BCMA-CAR T-cells was determined in the supernatant by ELISA. Assay was performed in triplicate wells. Data are presented as mean values+SD of n=3 independent experiments.
# (§4) Cytolytic activity was analyzed in a bioluminescence-based assay using firefly-luciferase (ffluc)-transduced target cells. Proliferation was measured by dilution of CFSE proliferation dye by flow cytometry. Therefore, CFSE-labeled CAR T-cells were incubated with target cells for 72 h at a 4:1 effector to target cell ratio. IFNγ and IL-2 were measured by ELISA (Biolegend, Koblenz, Germany) in supernatants obtained after a 20 hour co-culture of T-cells with target cells (effector:target ratio=4:1).
# [7] = tested on: BCMA-CAR T-cells co-incubated with MM.1S; assay: Proliferation of CFSE-labeled BCMA-CAR T-cells after stimulation with pretreated MM.1S; format: cell-based, human; details: MM.1S pretreated 72 hours with 100 nM ATRA and/or 0.01 uM GSI; CFSE after three days
# Procedure: MM.1S were incubated with 100 nM ATRA and/or 0.01 uM GSI for 72 hours or were left untreated. Afterwards, CFSE-labeled BCMA-CAR T-cells were co-incubated with these target cells. Proliferative capacity of BCMA-CAR T-cells was determined after three days by measuring the reduction of CFSE-labeling in effector cells. Data are presented as mean values+SD of n=3 independent experiments.
# as §4
# [8] = tested on: EGFRt_BCMA-CAR transgene expression of BCMA CD4+ and CD8+ CAR T-cells; assay: EGFRt_BCMA-CAR transgene expression of BCMA-CAR T-cells after incubation with ATRA; format: cell-based, human; details: increasing doses of ATRA, 72 hours; EGFRt+ T cells
# Procedure: EGFRt_BCMA-CAR transgene expression of BCMA CD4+ and CD8+ CAR T-cells after incubation with increasing doses of ATRA for 72 hours determined by flow cytometry. […] Data are presented as mean values+SD (n=3).
# [9] = tested on: BCMA CD4+ and CD8+ CAR T-cells; assay: Viability of BCMA-CAR T-cells after incubation with ATRA; format: cell-based, human; details: increasing doses of ATRA, 72 hours; 7-AAD- T cells
# Procedure: Viability of BCMA CD4+ and CD8+ CAR T-cells after incubation with increasing doses of ATRA for 72 hours determined by flow cytometry. […] Data are presented as mean values+SD (n=3).
# [10] = tested on: MM.1S myeloma cells; assay: Cytolytic activity of CD8+ BCMA-CAR T-cells against pretreated MM.1S, bioluminescence-based assay; format: cell-based, human; details: MM.1S pretreated 72 hours with 100 nM ATRA and/or 0.01 uM GSI; 4 h co-incubation
# Procedure: Myeloma cell lines were incubated with 100 nM ATRA and/or 0.01 uM GSI for 72 hours or were left untreated. Cytolytic activity of CD8^+ BCMA-CAR T-cells was determined in a bioluminescence-based assay after 4 h of co-incubation with target cells. Assay was performed in triplicate wells with 5,000 target cells per well. Data are presented as mean values+SD of n=4 independent experiments.
# as §4
# [11] = tested on: BCMA expression on primary myeloma cells; assay: BCMA expression on primary myeloma cells by flow cytometry after ATRA treatment
# [12] = tested on: BCMA expression on OPM-2; assay: BCMA expression on OPM-2 by flow cytometry after ATRA treatment; format: cell-based, human
# Procedure: as §3
# [13] = tested on: BCMA expression on NCI-H929; assay: BCMA expression on NCI-H929 by flow cytometry after ATRA treatment
# [14] = deltaMFI at baseline normalized to 1, 72 hours
structure (smiles),measurement,setting,value
"CC1=C(/C=C/C(C)=C/C=C/C(C)=C/C(=O)O)C(C)(C)CCC1 [ATRA, all-trans retinoic acid]",BCMA expression on MM.1S myeloma cells from bone marrow vs control mice,[1],Significantly higher BCMA expression
same,relative increase in BCMA transcripts,[2],2.1 fold
same,relative increase in BCMA transcripts,[3],1.8 fold
same,BCMA surface molecules by dSTORM after ATRA treatment,[4],increase of BCMA surface molecules
same,time for BCMA expression to return to baseline levels upon discontinuation of ATRA treatment,[5],≤ 72 h
same,BCMA expression when ATRA treatment was recommenced,[5]; 72 hours after re-exposition,increased again with the same amplitude
same,"BCMA expression, deltaMFI","[5]; ATRA (50 nM per FIG. 1) for 72 hours, untreated deltaMFI 1,098","2,709"
same,relative increase in BCMA expression after ATRA treatment,[5]; [14],1.9 fold
same,cytokine release of BCMA-CAR T-cells,[6],enhanced
same,proliferative capacity of BCMA-CAR T-cells,[7],enhanced proliferative capacity
same,effect on expression of the EGFRt_BCMA-CAR transgene,[8],did not diminish
same,effect on viability of BCMA-CAR T-cells,[9],no negative effect
same,cytolytic activity of BCMA-CAR T-cells against pretreated vs non-treated target cells,[10],superior cytolysis
same,BCMA expression once exposure to ATRA was discontinued,"[11]; 100 nM ATRA, 24 hours after removal",declined to baseline levels
same,"increase in deltaMFI for BCMA expression, average","[11]; 100 nM ATRA, 72 hours",1.6 ×
same,BCMA expression upon re-exposure to ATRA,[11]; 72 hours after re-exposition,increased again
same,BCMA expression by flow cytometry after ATRA,"[11]; n=5 patients, 72 hours, 100 nM P=0.04, 50 nM P=0.006, 25 nM P=0.04",significant increase
same,time for BCMA expression to return to baseline levels upon discontinuation of ATRA treatment,[12],≤ 72 h
same,BCMA expression when ATRA treatment was recommenced,[12]; 72 hours after re-exposition,increased again with the same amplitude
same,"BCMA expression, deltaMFI","[12]; ATRA (50 nM per FIG. 1) for 72 hours, untreated deltaMFI 3,558","7,358"
same,relative increase in BCMA expression after ATRA treatment,[12]; [14],1.9 fold
same,time for BCMA expression to return to baseline levels upon discontinuation of ATRA treatment,[13],≤ 72 h
same,BCMA expression when ATRA treatment was recommenced,[13]; 72 hours after re-exposition,increased again with the same amplitude
same,"BCMA expression, deltaMFI","[13]; ATRA (50 nM per FIG. 1) for 72 hours, untreated deltaMFI 9,883","13,891"
same,relative increase in BCMA expression after ATRA treatment,[13]; [14],1.7 fold

# Reference: patent US20230346734A1, “COMBINATION THERAPY OF ATRA OR OTHER RETINOIDS WITH IMMUNOTHERAPEUTIC AGENTS BINDING TO BCMA” (JULIUS-MAXIMILIANS-UNIVERSITÄT WÜRZBURG, priority 2020, published 2023)
